In US20170157155A1, “METHOD OF TREATMENT OF NASOPHARYNGEAL CANCER” (Millennium Pharmaceuticals, Inc., priority 2012, published 2017):

Tests used:
nasopharyngeal cancer = assay: Clinical response of nasopharyngeal cancer patients given the compound of formula (III-A) IV twice weekly; assay type: in vivo, human; conditions: for clinical response: IV injection days 1, 4, 8 and 11 of a 21-day cycle
Procedure: (1) Tissue Microarray (obtained from US Biomax, Inc.) of primary nasopharyngeal cancer (n=35) (2) Tissue Microarray of metastatic nasopharyngeal cancer (obtained from US Biomax, Inc.) (n=15) (3) Tissue Microarray of other histologies of head and neck cancers (obtained from US Biomax, Inc.) (n=68) (4) Archival primary tumor biopsy samples of patients with head and neck squamous cell cancers (n=14). All samples were obtained under the appropriate informed consent. The patients were administered the compound of formula (III-A) on a twice-weekly schedule (days 1, 4, 8 and 11 of a 21-day cycle) as an IV injection. Of the primary tumor samples in (4), there were three patients with nasopharyngeal cancer.

[1] = test system: hematological and solid tumor xenograft models; conditions: range of hematological and solid tumor xenograft models; cited from earlier work
[2] = on exposure to aqueous solution or plasma; cited from earlier work
[3] = test system: relapsed or refractory mantle cell lymphoma; conditions: international multi-center Phase II study; cited from earlier work

| SMILES | clinical response (nasopharyngeal cancer; Patient 1, metastatic nasopharyngeal cancer of a squamous cell type, tumor NFκB p65 H-score 300) | Responder/Non-responder (nasopharyngeal cancer; Patient 1, H-score 300) | clinical response (nasopharyngeal cancer; Patient 2, nasopharyngeal cancer, tumor NFκB p65 H-score 200) | Responder/Non-responder (nasopharyngeal cancer; Patient 2, H-score 200) | clinical response (nasopharyngeal cancer; Patient 3, nasopharyngeal cancer, tumor NFκB p65 H-score 160) | Responder/Non-responder (nasopharyngeal cancer; Patient 3, H-score 160) | anti-tumor activity [1] | hydrolysis to the active form MLN2238 [2] | activity in patients [3] |
| --- | --- | --- | --- | --- | --- | --- | --- | --- | --- |
| CC(C)C[C@H](NC(=O)CNC(=O)c1cc(Cl)ccc1Cl)B1OC(=O)C(CC(=O)O)(CC(=O)O)O1 [formula (III-A), 2,2′-{2-[(1R)-1-({[(2,5-dichlorobenzoyl)amino]acetyl}amino)-3-methylbutyl]-5-oxo-1,3,2-dioxaborolane-4,4-diyl}diacetic acid] | durable partial response | Responder | disease progressed within 4 cycles | Non-responder | progressive disease | Non-responder | demonstrated anti-tumor activity | rapidly hydrolyzes | – |
| CC(C)C[C@H](NC(=O)[C@H](Cc1ccccc1)NC(=O)c1cnccn1)B(O)O [bortezomib, N-2-pyrazinecarbonyl-L-phenylalanine-L-leucineboronic acid] | – | – | – | – | – | – | – | – | confirming the activity |
